“And” between values parts separate entries of the source, which are not always exact repeats. Equal values may be shown once. Each block holds one compound with its values, some of them ahead of it.
What was measured:
[1] = tested on: RPE cells; settings: known from the literature; cited from earlier work
[2] = tested on: lipofuscin in RPE cells of ABCA4−/− mice; assay: Fluorescence microscopy of autofluorescent lipofuscin granules in RPE semithin sections of ABCA4−/− mice; assay type: in vivo, mouse; settings: 12-month-old ABCA4−/− mice, 4 weeks after single intravitreal injection of 0.32 mg, qualitative
Experimental: (§1) Two μl PBS containing a total amount of 0.32 mg Soraprazan in suspension were injected into the vitreous of three 12 months old ABCA4^−/− mice.
The eyes were enucleated after four weeks. Two untreated aged matched ABCA4^−/− mice served as controls. After enucleation, the eyes were cleaned of orbital tissue and, after removal of the cornea, were fixed overnight at 4° C. in 2% glutaraldehyde in 0.1 M cacodylate buffer (pH 7.4) containing 100 mM sucrose. After washing with cacodylate buffer, areas of interest in flat mount preparations were excised and post-fixed with 1% osmium tetroxide in 0.1 M cacodylate buffer at room temperature for 1 h. In some parts of the eyes osmication was omitted which preserved the autofluorescence of lipofuscin. Dehydration was then started by a series of incubations in 30, 50, and 70% ethanol. […] For light and fluorescence microscopy, staining with osmium and uranylacetate was omitted.
Autofluorescent lipofuscin and melanolipofuscin granules were photographed in semi thin sections using a fluorescence microscope (Zeiss Axioplan2 imaging, excitation 370/36 nm, emission 575/15 nm, 40× objective) connected to a personal computer equipped with a CDD camera. Since the granules could not clearly be separated from each other and lipofuscin cannot be differentiated from melanolipofuscin, the quantification of lipofuscin granules was performed using electron microscopy.

[3] = tested on: lipofuscin in RPE cells of ABCA4−/− mice; assay: Quantification and ultrastructural (TEM) analysis of lipofuscin in RPE after single intravitreal injection in ABCA4−/− mice (Stargardt's disease model); assay type: in vivo, mouse; settings: single intravitreal injection 0.32 mg
Experimental: Pigmented ABCA4^−/− mice (129S4/SvJae-ABCA4^tm1Ght) were provided by Gabriel Travis (David Geffen School of Medicine, University of California, Los Angeles, Calif.) and bred in the Biomedical Sciences division, University of Oxford. All experiments were conducted in female mice. The animals were kept in a 12 hour light (<100 lux)/dark cycle, with food and water available ad libitum. All animal breeding and experimental procedures were performed under approval of local and national ethical and legal authorities, and were conducted in compliance with the ARVO statement for the Use of Animals in Ophthalmic and Vision Research.
as §1
The eyes were enucleated after four weeks. Two untreated aged matched ABCA4^−/− mice served as controls. After enucleation, the eyes were cleaned of orbital tissue and, after removal of the cornea, were fixed overnight at 4° C. in 2% glutaraldehyde in 0.1 M cacodylate buffer (pH 7.4) containing 100 mM sucrose. After washing with cacodylate buffer, areas of interest in flat mount preparations were excised and post-fixed with 1% osmium tetroxide in 0.1 M cacodylate buffer at room temperature for 1 h. In some parts of the eyes osmication was omitted which preserved the autofluorescence of lipofuscin. Dehydration was then started by a series of incubations in 30, 50, and 70% ethanol. The samples were stained with saturated uranyl acetate. Dehydration was continued by incubations in 70, 80, 95, 100% ethanol and propylene oxide. The samples were then embedded in Epon (SPI-Pon™812 Epoxy Embedding Kit, SPI supplies, West Chester, Pa.). For light and fluorescence microscopy, staining with osmium and uranylacetate was omitted.
Ultrathin Epon sections (70 nm) from WT control eyes and ABCA4^−/− eyes were post-stained with lead citrate and investigated under a transmission electron microscope (TEM; Model 902 A, Carl Zeiss, Oberkochen, Germany). For statistical analysis, the areas occupied by lipofuscin granules were quantified in 8-10 micrographs from each group. […] For lipofuscin quantification, image analysis software (iTEM, Olympus Soft imaging Solutions, Munster, Germany) was used. For each image, the total area of RPE cytoplasm was determined. […] The area fraction of lipofuscin/melanolipofuscin is expressed as area in μm^2 occupied by lipofuscin per 100 μm^2 RPE cytoplasm.
Statistical significance for the ultrastructural evaluation of lipofuscin granules was determined by using Dunnett's test and the JMP9 statistical program (SAS; Heidelberg, Germany). […]

[4] = tested on: Cynomolgus monkey; assay: 52-week oral administration in the Cynomolgus monkey, conventional histopathology of the eye; assay type: in vivo
Experimental: Soraprazan was administrated in oral application of 6, 12 and 24 mg/kg/day for 52 weeks in the Cynomolgus monkey.
Some monkeys from the control and the high-dose group were subjected to a recovery period of 3 months.

- melting point: 188 to 190 °C
Structure (SMILES): CCO[C@@H]1c2ccn3c(C)c(C)nc3c2N[C@H](c2ccccc2)[C@H]1O [Example 3, (7R,8R,9R)-2,3-Dimethyl-7-ethoxy-8-hydroxy-9-phenyl-7,8,9,10-tetrahydro-imidazo [1,2-h][1,7]naphthyridine]

- melting point: 135 to 137 °C
Structure (SMILES): CCO[C@H]1c2ccn3c(C)c(C)nc3c2N[C@H](c2ccccc2)[C@H]1O [Example 4, (7S,8R,9R)-2,3-Dimethyl-7-ethoxy-8-hydroxy-9-phenyl-7,8,9,10-tetrahydro-imidazo [1,2-h][1,7]naphthyridine]

- melting point: 108 to 110 °C
Structure (SMILES): CO[C@H]1c2ccn3c(C)c(C)nc3c2N[C@H](c2ccccc2)[C@H]1O [Example 2A, (7S,8R,9R)-2,3-Dimethyl-8-hydroxy-7-methoxy-9-phenyl-7,8,9,10-tetrahydro-imidazo [1,2-h][1,7]naphthyridine]

- melting point: 168 to 169 °C
Structure (SMILES): Cc1nc2c3c(ccn2c1C)[C@H](OC(C)C)[C@H](O)[C@@H](c1ccccc1)N3 [Example 7, (7S,8R,9R)-2,3-Dimethyl-8-hydroxy-9-phenyl-7-(2-propoxy)-7,8,9,10-tetrahydro-imidazo [1,2-h][1,7]naphthyridine]

- melting point: 155 to 156 °C
Structure (SMILES): CO[C@@H]1[C@@H](c2ccccc2)Nc2c(ccn3c(C)c(C)nc23)[C@H]1OC [Example 8, (7R,8R,9R)-2,3-Dimethyl-7,8-dimethoxy-9-phenyl-7,8,9,10-tetrahydro-imidazo[1,2-h][1,7]naphthyridine]

- conventional histopathology findings ([4]; oral 6 mg/kg/day for 52 weeks): no alterations
- conventional histopathology findings ([4]; oral 12 mg/kg/day for 52 weeks): no alterations
- monkeys showing migration of individual macrophages beneath the RPE and/or into the subretinal space ([4]; oral 24 mg/kg/day for 52 weeks): Three out of 12
- photoreceptors facing the depigmented RPE ([4]; oral 24 mg/kg/day for 52 weeks): stayed healthy
- monkeys with depigmentation of RPE cells ([4]; oral 24 mg/kg/day for 52 weeks, among the 3 monkeys with macrophage migration): Two of these 3
Structure (SMILES): COCCO[C@@H]1c2ccn3c(C)c(C)nc3c2N[C@H](c2ccccc2)[C@H]1O [Soraprazan, (7R,8R,9R)-2,3-Dimethyl-8-hydroxy-7-(2-methoxyethoxy)-9-phenyl-7,8,9,10-tetrahydro-imidazo [1,2-h][1,7]naphthyridine]
- removal of "natural" lipofuscin from RPE cells [1]: remove such lipofuscin from RPE cells
- lipofuscin in RPE under fluorescent light compared to untreated mice [2]: lipofuscin was reduced
- percent area occupied by lipofuscin in RPE cell cytoplasm (median) ([3]; 12-month-old ABCA4−/− mice, eyes enucleated after four weeks, untreated median 12.92%, p<0.0001, Dunnett's test): 6.42%
- electron-opaque lipofuscin granules in RPE (TEM) compared to controls ([3]; 12-month-old ABCA4−/− mice, four weeks): significantly reduced in number
- appearance of retinas of treated animals ([3]; ABCA4−/− mice): removing lipofuscin. Retinas of treated animals made a healthy
- lipofuscin content of RPE cells after treatment (study overview result) ([3]; ABCA4−/− mice, 44 retinal areas, p < 0.0001): significantly reduced and 1. Lipofuscin is removed from ABCA4^−/− mouse RPE cells after

- melting point: 171 to 172 °C
Structure (SMILES): CO[C@@H]1c2ccn3c(C)c(C)nc3c2N[C@@H](c2ccccc2)[C@@H]1O [Example 2B, (7R,8S,9S)-2,3-Dimethyl-8-hydroxy-7-methoxy-9-phenyl-7,8,9,10-tetrahydro-imidazo[1,2-h][1,7]naphthyridine]

- melting point: 161 to 162 °C
Structure (SMILES): CO[C@H]1c2ccn3c(C)c(C)nc3c2N[C@@H](c2ccccc2)[C@@H]1O [Example 1B, (7S,8S,9S)-2,3-Dimethyl-8-hydroxy-7-methoxy-9-phenyl-7,8,9,10-tetrahydro-imidazo [1,2-h][1,7] naphthyridine]

— patent US20160235724A1, “TETRAHYDROPYRIDOETHERS FOR THE TREATMENT OF STARGARDT'S DISEASE” (KATAIRO GMBH, priority 2013, published 2016)
